Results published in patent US10772859B2, “Methods of targeting APE/Ref-1 to inhibit hypoxia signaling genes” (Indiana University Research and Technology Corporation, priority 2015, dated 2020).
Like-named read-outs stand apart in the source and are kept apart here.

Columns and labels:
[1] = tested on: Pa03C and Panc10.05 tumor spheroids with or without CAFs; test: 3D co-culture tumor spheroid model (Example 1); type: cell-based, human; details: for tumor cell killing (reduction in area of tumor cells): 3D spheroids, 12 days in culture, with and without CAFs
Method: 3D Co-Cultures: Ultra low attachment 96-well plates (Corning Inc., Life Sciences) were used to generate 3-dimensional tumor spheroids in the presence and absence of CAFs (75 μL/well) as described previously (Sempere, Gunn et al. (2011) Cancer Biol Ther 12(3): 198-207; Arpin, Mac et al. (2015) Molecular Cancer Therapeutics). Cells were stably transduced with EGFP (green) or TdTomato (red) as indicated to preserve the genetic characteristics of the low passage patient cells (Jones, Zhang et al. (2008) Science 321(5897): 1801-1806). Cells were re-suspended in colorless DMEM growth media containing 3% Reduced Growth Factor Matrigel (RGF, BD Biosciences) and 5% FBS. Following plating, cells were treated on Days 4 and 8 with media containing 5% serum, 3% RGF Matrigel, and inhibitors as indicated. On Day 12, spheroids were analyzed using Thermo ArrayScan high-content imaging system (Lovborg, Nygren et al. (2004) Mol Cancer Ther 3(5): 521-526; Lindblom, Berg et al. (2012) Toxicol Pathol 40(1): 18-32). Images of 3D structures were captured by ArrayScan using a 2.5× objective for TdTomato and EGFP; then 2D projections were processed to quantify differences in total intensity and total area of both CAFs and tumor.

[2] = tested on: CA9 protein; test: Western blot of CA9 protein in 3D tumor spheroid cultures with or without CAFs; type: cell-based, human; details: Pa03C 3D tumor cultures, in the presence and absence of CAF cells
Method: Western Blot Analysis: Western blots were performed as described in Wang, Luo et al. (2004) Mol Cancer Ther 3(6): 679-686; Fishel, He et al. (2008) DNA Repair (Amst) 7(2): 177-186; Fishel, Colvin et al. (2010) Hematol 38(12): 1178-1188; Jiang, Zhou et al. (2010) Cancer Investigation 28(9): 885-895; Fishel, Jiang et al. (2011) Molecular Cancer Therapeutics 10(9): 1698-1708; Cardoso, Jiang et al. (2012) PLoS ONE 10: e47462; Fishel, Wu et al. (2015) J Biol Chem 290(5): 3057-3068, with antibodies for APE1/Ref-1 (Novus Biologicals; Littleton, Colo.), HIF1α (GeneTex; Irvine, Calif.), STAT1, STATS, (Cell Signaling; Danvers, Mass.), NFκB (abcam; Cambridge, Mass.), CA9 (Santa Cruz; Dallas, Tex.) and Vinculin (Sigma; St. Louis, Mo.).
3D Co-Cultures: Ultra low attachment 96-well plates (Corning Inc., Life Sciences) were used to generate 3-dimensional tumor spheroids in the presence and absence of CAFs (75 μL/well) as described previously (Sempere, Gunn et al. (2011) Cancer Biol Ther 12(3): 198-207; Arpin, Mac et al. (2015) Molecular Cancer Therapeutics). […] On Day 12, spheroids were analyzed using Thermo ArrayScan high-content imaging system (Lovborg, Nygren et al. (2004) Mol Cancer Ther 3(5): 521-526; Lindblom, Berg et al. (2012) Toxicol Pathol 40(1): 18-32). […]

[3] = tested on: PDAC tumor spheroids (Pa03C and Panc10.05) alone and with CAFs; test: Three-dimensional growth assay, PDAC/CAF co-culture (Example 2); type: cell-based, human; details: tumor spheroids alone and in culture with CAFs
Method: Ninety-six well plates were coated with 1% Noble Agar (Difco) (50 μL/well). mCherry-labeled PDAC cells and EGFP-labeled CAFs were resuspended in normal growth media containing 3% Matrigel (BD Biosciences) at a cell ratio of 1:4 (tumor:CAF) and plated on top of solidified 1% Noble Agar. Cells were fed on Days 4 and 8 following plating with media containing 5% serum+3% Matrigel+investigational drug.
Utilizing APX3330, JAK 2 inhibitor (Ruxolitinib (INCB018424; Fisher Scientific) (“RUX”)) and lead STATS inhibitors (PG-S3-001, DR-4-89), the effects of Ref-1/STAT3 inhibition in PDAC low passage patient-derived cell lines (Pa03C and Panc10.05) were evaluated. The response using proliferation-based 3D co-culture assays and statistical analyses to assess synergy, additively or antagonism was evaluated using the Chou-Talalay method.
This Example was designed to visualize the same live co-cultures over 12 days with images captured by Thermo ArrayScan at 8 and 12 days of co-culture. Cancer and stromal cells in this model were marked with distinct fluorescent proteins (mCherry for tumor and EGFP for CAFs) so that the cell populations could be differentiated and quantified. […] In this way, drug efficacy of PDAC cells could be evaluated in co-culture with CAFs, which more faithfully mimics the natural in vivo PDAC environment.

[4] = tested on: CA9 mRNA; details: Panc-1 and MIA-PaCa2 cells exposed to hypoxia, previously shown; cited from earlier work
[5] = tested on: CA9 mRNA; test: qRT-PCR of CA9 mRNA levels under hypoxia; type: cell-based, human; details: 24 hours of exposure to APX3330 and 1% oxygen
Method: qRT-PCR Reactions: qRT-PCR was used to measure the mRNA expression levels of CA9 as described in Fishel, Jiang et al. (2011) Molecular Cancer Therapeutics 10(9): 1698-1708. Cells were treated with APE1/Ref-1 siRNA or increasing amounts of APX3330 in the presence or absence of hypoxia (1% and 0.2% O2) for 24 hours, then total RNA was extracted from cells using the QiagenRNeasy Mini kit (Valencia, Calif.). First-strand cDNA synthesis and quantitative PCR were performed as described in Fishel, Vasko et al. (2007) Mutat Res 614(1-2): 24-36; Jiang, Guo et al. (2009) DNA Repair (Amst) 8(11): 1273-1282; Fishel, Jiang et al. (2011) Molecular Cancer Therapeutics 10(9): 1698-1708. The relative quantitative mRNA level was determined using the comparative Ct method using 18S rRNA, RPLPO, and B2M as reference genes (Livak and Schmittgen (2001) Methods 25(4): 402-408; Fishel, Vasko et al. (2007) Mutat Res 614(1-2): 24-36; Jiang, Guo et al. (2009) DNA Repair (Amst) 8(11): 1273-1282). The primers for CA9, 18S, RPLPO, and B2M are commercially available (Applied Biosystems).

[6] = tested on: Pa02C cells; test: Alamar Blue cell proliferation in monolayer under hypoxia; type: cell-based, human; details: hypoxia (0.2%) for six days, single agent
Method: Cell Proliferation: PDAC cell proliferation in monolayer was measured using the Alamar Blue assay as described in Fishel, Wu et al. (2015) J Biol Chem 290(5): 3057-3068. Cells treated with APX3330 and SLC-0111 were exposed to hypoxia for six days followed by addition of Alamar Blue reagent (Invitrogen) and subsequent fluorescence analysis. Fold change refers to the fluorescence reading for cells treated with indicated inhibitors compared to cells growing in normal media.

[7] = tested on: PDAC; test: Single-agent STAT3 inhibitor activity in vivo (FIG. 14)

Row | Compound | tumor cell killing (reduction in area of tumor cells) [1] | CA9 expression (protein) [2] | killing of tumor spheroids [3] | CA9 mRNA levels [4] | CA9 mRNA levels ([5]; Pa03C cells) | CA9 mRNA levels ([5]; pancreatic CAF cells) | PDAC cell proliferation [6] | activity in vivo [7] | cell killing in tumor cells versus CAFs ([1]; 3D co-culture, especially CAF19 with Pa03C)
1 | CCCCCCCCCC(=CC1=C(C)C(=O)C(OC)=C(OC)C1=O)C(=O)O [APX3330] | decrease in tumor cell area | decreased CA9 expression in 3D tumor cultures in a dose-dependent manner | effectively killed both tumor spheroids alone and in culture with CAFs | decreases | attenuated in a dose-dependent manner | attenuated in a dose-dependent manner | dose-dependent decrease |  | 
2 | CC(C)C(C(=O)N(Cc1ccc(C2CCCCC2)cc1)c1ccc(C(=O)O)cc1)N(C)S(=O)(=O)c1c(F)c(F)c(F)c(F)c1F (centres unmarked) [PG-S3-001, reference compound] |  |  | effectively killed both tumor spheroids alone and in culture with CAFs |  |  |  |  | some activity was observed in vivo | 
3 | NS(=O)(=O)c1ccc(NC(=O)Nc2ccc(F)cc2)cc1 [SLC-0111] | dramatic effects on tumor cell killing observed at lower doses than in a monolayer |  |  |  |  |  |  |  | more dramatic in the tumor cells than in the CAFs
